# Tested on: U87 tumor
# Test: PET imaging and tissue biodistribution in U87 tumor-bearing mice
# Assay type: in vivo, mouse
# Conditions: head-to-head; 1 h; dose 20 μCi; n=5/group (FAPI-04 n = 3)
# Description: Cell uptake assays, flow cytometry, and IHC were performed as described previously. Banerjee et al., 2019; Nimmagadda et al., 2018. PET imaging and biodistribution Sequential PET imaging and biodistribution studies were conducted to quantify and validate PET imaging data. Briefly, tumor-bearing mice were administrated approximately 7.4 MBq of radiotracer in 150 μL saline via tail-vein injection. They were randomized into the indicated groups of 3-4 mice before radiotracer injection.
# In Experiment 1, bilateral xenografts of U87 (right flank) and PSMA+ PC3 PIP (left flank) tumors were established in male NSG mice (n=3), which underwent imaging followed by biodistribution over 24 h. […] A biodistribution study was further conducted with U87 tumors at 2 h post-injection (n=3) to compare the tissue distribution properties of ^64Cu-FP-L1 and ^64Cu-FAPI-04.
Compound,Biodistribution: Bladder,Biodistribution: Blood,Biodistribution: Bone,Biodistribution: Fat,Biodistribution: Heart,Biodistribution: Kidney,Biodistribution: Lacrimal gland,Biodistribution: Liver,Biodistribution: Lung,Biodistribution: Muscle,Biodistribution: Pancreas,Biodistribution: Salivary Gland,Biodistribution: Small Intestine,Biodistribution: Spleen,Biodistribution: Stomach,Biodistribution: U87
"N#C[C@@H]1CCCN1C(=O)CNC(=O)c1ccnc2ccc(OCCCNC(=O)CCc3cn(CCCC[C@H](NC(=O)CN4CCN(CC(=O)O)CCN(CC(=O)O)CC4)C(=O)NCCCOc4ccc5nccc(C(=O)NCC(=O)N6CCC[C@H]6C#N)c5c4)nn3)cc12 [^64Cu-FAPI-74, metal not drawn, reference compound]",3.51 ± 0.30 % ID/g,2.48 ± 0.87 % ID/g,7.94 ± 0.78 % ID/g,0.48 ± 0.43 % ID/g,1.16 ± 0.28 % ID/g,3.83 ± 2.31 % ID/g,5.17 ± 1.51 % ID/g,1.69 ± 0.83 % ID/g,2.48 ± 0.64 % ID/g,2.05 ± 0.84 % ID/g,2.09 ± 1.12 % ID/g,4.42 ± 0.55 % ID/g,3.80 ± 2.06 % ID/g,1.23 ± 0.41 % ID/g,1.29 ± 0.45 % ID/g,11.42 ± 1.11 % ID/g
"N#CC1CCCN1C(=O)CNC(=O)c1ccnc2ccc(OCCCN3CC4CN(C(=O)CN5CCN(CC(=O)O)CCN(CC(=O)O)CC5)CC4C3)cc12 (centres unmarked) [^64Cu-Sri-07-86, metal not drawn]",5.55 ± 4.26 % ID/g,2.54 ± 0.90 % ID/g,2.84 ± 0.83 % ID/g,0.31 ± 0.08 % ID/g,1.04 ± 0.28 % ID/g,4.00 ± 1.28 % ID/g,3.53 ± 2.93 % ID/g,1.97 ± 0.36 % ID/g,2.02 ± 0.93 % ID/g,1.65 ± 1.10 % ID/g,1.89 ± 0.57 % ID/g,2.77 ± 0.53 % ID/g,3.15 ± 1.34 % ID/g,1.13 ± 0.42 % ID/g,1.26 ± 0.45 % ID/g,6.55 ± 1.41 % ID/g

# Reference: patent US20240382629A1, “HETEROBIVALENT AND HOMOBIVALENT AGENTS TARGETING FIBROBLAST ACTIVATION PROTEIN ALPHA AND/OR PROSTATE-SPECIFIC MEMBRANE ANTIGEN” (The Johns Hopkins University, priority 2021, published 2024)
